Activity calls are given as the source filed them. The calls are words filed in the database; no cut-off is given here.
How the values were obtained:
[1] = Cytotoxicity against mouse BV-2 cells assessed as cell viability at 10 uM measured after 24 hrs by MTT assay relative to control; assay type: toxicity, cell-based; conditions: read-out: Activity
BV-2 [2] = experiment: Anti-neuroinflammatory activity against LPS-induced mouse BV-2 cells assessed as smaller cell bodies and morphology at 20 uM by bright field microscopy relative to LPS-induced control; assay type: functional, cell-based
BV-2 [3] = experiment: Inhibition of LPS-induced NO production in mouse BV-2 cells measured after 24 hrs followed by induced with LPS for another 24 hrs by ELISA relative to control; assay type: functional, cell-based
BV-2 [4] = experiment: Anti-inflammatory activity against LPS-induced mouse BV-2 cells assessed as decrease in LPS-induced iNOS mRNA expression at 5 uM incubated for 4 hrs followed by LPS induced for 12 hrs by RT-PCR analysis relative to control; assay type: functional, cell-based; conditions: time 16.0 hrs
BV-2 [5] = experiment: Anti-inflammatory activity against LPS-induced mouse BV-2 cells assessed as decrease in LPS-induced iNOS mRNA expression at 10 to 20 uM incubated for 4 hrs followed by LPS induced for 12 hrs by RT-PCR analysis relative to control; assay type: functional, cell-based; conditions: dose 10-20 µM, time 16.0 hrs
BV-2 [6] = experiment: Anti-inflammatory activity against LPS-induced mouse BV-2 cells assessed as decrease in LPS-induced Cyclooxygenase-2 mRNA expression at 5 to 20 uM incubated for 4 hrs followed by LPS induced for 12 hrs by RT-PCR analysis relative to control; assay type: functional, cell-based; conditions: dose 5-20 µM, time 16.0 hrs
BV-2 [7] = experiment: Anti-inflammatory activity against LPS-induced mouse BV-2 cells assessed as decrease in LPS-induced TNF-alpha mRNA expression at 5 uM incubated for 4 hrs followed by LPS induced for 12 hrs by RT-PCR analysis relative to control; assay type: functional, cell-based; conditions: time 16.0 hrs
BV-2 [8] = experiment: Anti-inflammatory activity against LPS-induced mouse BV-2 cells assessed as decrease in LPS-induced IL-1beta mRNA expression at 10 to 20 uM incubated for 4 hrs followed by LPS induced for 12 hrs by RT-PCR analysis relative to control; assay type: functional, cell-based; conditions: dose 10-20 µM, time 16.0 hrs
BV-2 [9] = experiment: Anti-inflammatory activity against LPS-induced mouse BV-2 cells assessed as decrease in LPS-induced Cyclooxygenase-2 mRNA expression at 20 uM incubated for 4 hrs followed by LPS induced for 12 hrs by RT-PCR analysis relative to control; assay type: functional, cell-based; conditions: time 16.0 hrs
BV-2 [10] = experiment: Anti-inflammatory activity against LPS-induced mouse BV-2 cells assessed as decrease in LPS-induced iNOS production incubated for 4 hrs followed by LPS induced for 24 hrs by Western blotting analysis; assay type: functional, cell-based; conditions: dose 5-20 µM, time 28.0 hrs
[11] = Acute toxicity in C57BL/6 mouse assessed as morphological changes in kidney by measuring signs of inflammation at 500 mg/kg, po single dose measured on day 8 by H and E staining based assay; assay type: organism-based; conditions: in vivo, 192 h, time 8 day
[12] = Acute toxicity in C57BL/6 mouse assessed as change in BUN level at 500 mg/kg, po single dose measured on day 8; assay type: organism-based; conditions: in vivo
[13] = Acute toxicity in C57BL/6 mouse assessed as change in ALT level at 500 mg/kg, po single dose measured on day 8 by ALT/GPT test kit; assay type: organism-based; conditions: in vivo
[14] = Biodistribution in C57BL/6 mouse liver at 20 mg/kg, IG measured after 15 mins; assay type: ADME, organism-based; conditions: in vivo, po, 0.25 h
[15] = Biodistribution in C57BL/6 mouse lung at 20 mg/kg, IG measured after 15 mins; assay type: ADME, organism-based; conditions: in vivo, po, 0.25 h
[16] = Biodistribution in C57BL/6 mouse kidney at 20 mg/kg, IG measured after 15 mins; assay type: ADME, organism-based; conditions: in vivo, po, 0.25 h
[17] = Biodistribution in C57BL/6 mouse spleen at 20 mg/kg, IG measured after 15 mins; assay type: ADME, organism-based; conditions: in vivo, po, 0.25 h
[18] = Half life in rat at 20 mg/kg, po single dose; assay type: ADME, organism-based; conditions: in vivo
[19] = Cmax in rat at 20 mg/kg, po single dose; assay type: ADME, organism-based; conditions: in vivo
[20] = Tmax in rat at 20 mg/kg, po single dose; assay type: ADME, organism-based; conditions: in vivo
[21] = AUCall in rat at 20 mg/kg, po single dose; assay type: ADME, organism-based; conditions: in vivo
[22] = AUMClast in rat at 20 mg/kg, po single dose; assay type: ADME, organism-based; conditions: in vivo
[23] = MRT in rat at 20 mg/kg, po single dose; assay type: ADME, organism-based; conditions: in vivo
[24] = Ratio of AUC in brain to serum in rat at 20 mg/kg, po single dose; assay type: ADME, organism-based
Mus musculus [25] = experiment: Anti-neuroinflammatory activity against LPS-induced male C57BL/6 mouse assessed as suppression of LPS-induced IL-6 mRNA level at 20 mg/kg, po administered for 3 days followed by induced with LPS by tail vein injection by RT-PCR analysis; assay type: functional, organism-based; conditions: time 3.0 day
Mus musculus [26] = experiment: Anti-neuroinflammatory activity against LPS-induced male C57BL/6 mouse assessed as suppression of LPS-induced TLR4 protein level at 20 mg/kg, po administered for 3 days followed by induced with LPS by tail vein injection by Western blot analysis; assay type: functional, organism-based; conditions: time 3.0 day
Mus musculus [27] = experiment: Anti-neuroinflammatory activity against LPS-induced male C57BL/6 mouse assessed as suppression of LPS-induced p-IkappaB-alpha protein level at 20 mg/kg, po administered for 3 days followed by induced with LPS by tail vein injection by Western blot analysis; assay type: functional, organism-based; conditions: time 3.0 day
Mus musculus [28] = experiment: (§1) Anti-neuroinflammatory activity against LPS-induced male C57BL/6 mouse assessed as suppression of LPS-induced pathological changes in heart at 20 mg/kg, po administered for 3 days followed by induced with LPS by tail vein injection by hematoxylin-eosin staining based assay; assay type: functional, organism-based; conditions: time 3.0 day
Mus musculus [29] = experiment: Anti-neuroinflammatory activity against LPS-induced male C57BL/6 mouse assessed as suppression of LPS-induced pathological changes in spleen at 20 mg/kg, po administered for 3 days followed by induced with LPS by tail vein injection by hematoxylin-eosin staining based assay; assay type: functional, organism-based; conditions: time 3.0 day
Mus musculus [30] = experiment: Anti-neuroinflammatory activity against LPS-induced male C57BL/6 mouse assessed as suppression of LPS-induced pathological changes in lung at 20 mg/kg, po administered for 3 days followed by induced with LPS by tail vein injection by hematoxylin-eosin staining based assay; assay type: functional, organism-based; conditions: time 3.0 day
Mus musculus [31] = experiment: Anti-neuroinflammatory activity against LPS-induced male C57BL/6 mouse assessed as suppression of LPS-induced pathological changes in kidney at 20 mg/kg, po administered for 3 days followed by induced with LPS by tail vein injection by hematoxylin-eosin staining based assay; assay type: functional, organism-based; conditions: time 3.0 day
Mus musculus [32] = experiment: Anti-neuroinflammatory activity against LPS-induced male C57BL/6 mouse assessed as suppression of LPS-induced pathological changes in liver at 20 mg/kg, po administered for 3 days followed by induced with LPS by tail vein injection by hematoxylin-eosin staining based assay; assay type: functional, organism-based; conditions: time 3.0 day
Mus musculus [33] = experiment: Anti-neuroinflammatory activity against LPS-induced male C57BL/6 mouse assessed as suppression of LPS-induced neuronal damage by measuring increase in Nissl bodies at 20 mg/kg, po administered for 3 days followed by induced with LPS by tail vein injection; assay type: functional, organism-based; conditions: time 3.0 day
Mus musculus [34] = experiment: as §1, with “microglial activation by measuring decrease” for “pathological changes”, “[…] fluorescence intensity” for “heart”, “immunofluorescence” for “hematoxylin-eosin”; assay type: functional, organism-based; conditions: time 3.0 day
BV-2 [35] = experiment: Anti-inflammatory activity against LPS-induced mouse BV-2 cells assessed as decrease in LPS-induced TNFalpha production at 5 to 10 uM incubated for 4 hrs followed by LPS induced for 24 hrs by Western blotting analysis; assay type: functional, cell-based; conditions: dose 5-10 µM

Structure (SMILES): O=c1[nH]c2ccc(Nc3ncnc4c3ccn4Cc3ccc(F)cc3)cc2[nH]1
- viability at 24 h, 10 µM [1]: 95.3%
- Activity (BV-2 [2]): Active
- inhibition (BV-2 [3]): Active
- Activity (BV-2 [4]): Not active; No Significant Effect Observed Vs Lps
- Activity (BV-2 [5]): Active
- Activity (BV-2 [6]): Active
- Activity (BV-2 [7]): Not active; No Significant Effect Observed Vs Lps
- Activity (BV-2 [8]): Active
- Activity (BV-2 [9]): Active
- Activity (BV-2 [10]): Dose-dependent-effect
- Activity [11]: Non-toxic
- Activity [12]: Non-toxic
- Activity [13]: Non-toxic
- Drug uptake [14]: Active
- Drug uptake [15]: Active
- Drug uptake [16]: Active
- Drug uptake [17]: Active
- half-life [18]: 5.91 h
- Cmax [19]: 7490 ng/mL
- Tmax [20]: 1 h
- AUC [21]: 43600 ng·h/mL
- AUMClast [22]: 269972.2 hr.hr.ng/ml
- MRT [23]: 6.2 h
- Ratio [24]: 1.9%
- Activity (Mus musculus [25]): Active
- Activity (Mus musculus [26]): Active
- Activity (Mus musculus [27]): Active
- Activity (Mus musculus [28]): Active; Decreased Lps-Induced Visceral Injury (Cell Morphology, Hemorrhage, And Neutrophil Infiltration) And Maintaining Normal Cell Shape And Arrangement And Enhancing Infiltration Of Inflammatory Cells
- Activity (Mus musculus [29]): Active; Decreased Lps-Induced Visceral Injury (Cell Morphology, Hemorrhage, And Neutrophil Infiltration) And Maintaining Normal Cell Shape And Arrangement And Enhancing Infiltration Of Inflammatory Cells
- Activity (Mus musculus [30]): Active; Decreased Lps-Induced Visceral Injury (Cell Morphology, Hemorrhage, And Neutrophil Infiltration) And Maintaining Normal Cell Shape And Arrangement And Enhancing Infiltration Of Inflammatory Cells
- Activity (Mus musculus [31]): Active; Decreased Lps-Induced Visceral Injury (Cell Morphology, Hemorrhage, And Neutrophil Infiltration) And Maintaining Normal Cell Shape And Arrangement And Enhancing Infiltration Of Inflammatory Cells
- Activity (Mus musculus [32]): Active; Decreased Lps-Induced Visceral Injury (Cell Morphology, Hemorrhage, And Neutrophil Infiltration) And Maintaining Normal Cell Shape And Arrangement And Enhancing Infiltration Of Inflammatory Cells
- Activity (Mus musculus [33]): Active
- Activity (Mus musculus [34]): Active
- Activity (BV-2 [35]): Not active; No Significant Effect Observed Vs Lps
